From US12383544B2, “Methods for the treatment of polycystic kidney disease” (Galapagos NV, priority 2019, dated 2025) come the findings set out here.

Common to all, as to type: cell-based
In experiment [1] the target is T1, wild type mouse CFTR (Mus musculus, UniProt P26361).
T1 construct: expressed in transfected cells; host or cells: mouse mIMCD3_wt cells (ATCC CRL-2123)
As to the kind of experiment: YFP halide (YHA) assay in mIMCD3_wt cells, Cpd 1 with Metformin. The method, then: To evaluate the ability of a test compound combination to inhibit wild type CFTR using tubular kidney cells, a YFP halide assay using mIMCD3_wt cells (ATCC® CRL-2123) transfected with wild type mouse CFTR was developed (Galietta, Jayaraman, and Verkman 2001). Cells were incubated during 24 h with a dose range of compound 1 or a combination of a dose range of compound 1 with increasing dose of Metformin Immediately before measurement, forskolin together with a dose range of compound 1 combined or not with increasing dose of Metformin was added the wild type CFTR expressing mIMCD3 cells in order to fully activate the available CFTR at the plasma membrane. Inhibition of the channel by test compounds was plotted to obtain IC50s.
Mouse mIMCD3_wt cells were transfected with 20 ng of wild type CFTR and 80 ng of plasmid encoding YFP (H148Q/I152L/F47L) using jetPEI (Polyplus transfection). Directly after transfection, cells were seeded in black 96-well plates coated with Poly-D-lysine at a density of 40,000 cells per well. The next day, cells were treated with compounds for 24 h. After this incubation period, cells were washed twice with DPBS with Ca^2+ and Mg^2+. Subsequently, cells were treated with 10 μM forskolin and the desired concentrations of compounds in a volume of 40 μl and incubated at room temperature for 15 min, a time point optimized in previous experiments resulting in a good window (positive control/negative control>2) and signal to background ratio. YFP fluorescence was measured using an EnVision plate reader (PerkinElmer). […] The excitation wavelength was 485 nm and the emission wavelength 530 nm.
Concentration-response experiments were fitted using a 4 parameter hill function of the form Response=Bottom+(Top−Bottom)/(1+(EC50/concentration)^HillSlope)) to determine EC50 values.

Experiment [2] concerns the target T2, wild type human CFTR (Homo sapiens, UniProt P13569).
T2 construct: expressed in transfected cells; host or cells: HEK293
Briefly: Yellow Fluorescent Protein (YFP) halide assay in wild type CFTR (HEK293 cells). The conditions noted are these: HEK293 cells transfected with wild type human CFTR; 24 h incubation; 10 μM forskolin; read-out: EC50 of inhibition of WT CFTR. The method, then:
To evaluate the ability of a test compound to inhibit wild type CFTR, a YFP halide assay using HEK293 cells transfected with wild type human CFTR was developed. (Galietta, Jayaraman, and Verkman 2001) Cells were incubated during 24 h with a dose range of test compound and the resulting wild type CFTR activity was plotted to obtain the EC50.
Test compounds were also added together with forskolin to wild type CFTR expressing cells in order to fully active the available CFTR at the plasma membrane and determine accurately the inhibition of the channel activity.
HEK293 cells were transfected with 10 to 80 ng of wild type CFTR and 20 ng of plasmid encoding YFP (H148Q/I152L/F47L) using jetPEI (Polyplus transfection). Directly after transfection, cells were seeded in black 96-well plates coated with Poly-D-lysine at a density of 70,000 cells per well. The next day, cells were treated with corrector(s) for 24 h. After this incubation period, cells were washed twice with DPBS with Ca^2+ and Mg^2+. Subsequently, cells were treated with 10 μM forskolin and the desired concentration of potentiator in a volume of 40 μl and incubated at room temperature for 10 min, a time point optimized in previous experiments resulting in a good window (positive control/negative control >2) and signal to background ratio. YFP fluorescence was measured using an EnVision plate reader (PerkinElmer). […]

The target in experiment [3] is T3, wt CFTR (CFTR channel) (Homo sapiens, UniProt P13569).
T3 construct: evaluate compounds on normal primary bronchial epithelial cells (HBE cells); endogenous in cells; host or cells: normal primary human bronchial epithelial (HBE) cells from donor lungs
T3 sequence (P13569 whole entry): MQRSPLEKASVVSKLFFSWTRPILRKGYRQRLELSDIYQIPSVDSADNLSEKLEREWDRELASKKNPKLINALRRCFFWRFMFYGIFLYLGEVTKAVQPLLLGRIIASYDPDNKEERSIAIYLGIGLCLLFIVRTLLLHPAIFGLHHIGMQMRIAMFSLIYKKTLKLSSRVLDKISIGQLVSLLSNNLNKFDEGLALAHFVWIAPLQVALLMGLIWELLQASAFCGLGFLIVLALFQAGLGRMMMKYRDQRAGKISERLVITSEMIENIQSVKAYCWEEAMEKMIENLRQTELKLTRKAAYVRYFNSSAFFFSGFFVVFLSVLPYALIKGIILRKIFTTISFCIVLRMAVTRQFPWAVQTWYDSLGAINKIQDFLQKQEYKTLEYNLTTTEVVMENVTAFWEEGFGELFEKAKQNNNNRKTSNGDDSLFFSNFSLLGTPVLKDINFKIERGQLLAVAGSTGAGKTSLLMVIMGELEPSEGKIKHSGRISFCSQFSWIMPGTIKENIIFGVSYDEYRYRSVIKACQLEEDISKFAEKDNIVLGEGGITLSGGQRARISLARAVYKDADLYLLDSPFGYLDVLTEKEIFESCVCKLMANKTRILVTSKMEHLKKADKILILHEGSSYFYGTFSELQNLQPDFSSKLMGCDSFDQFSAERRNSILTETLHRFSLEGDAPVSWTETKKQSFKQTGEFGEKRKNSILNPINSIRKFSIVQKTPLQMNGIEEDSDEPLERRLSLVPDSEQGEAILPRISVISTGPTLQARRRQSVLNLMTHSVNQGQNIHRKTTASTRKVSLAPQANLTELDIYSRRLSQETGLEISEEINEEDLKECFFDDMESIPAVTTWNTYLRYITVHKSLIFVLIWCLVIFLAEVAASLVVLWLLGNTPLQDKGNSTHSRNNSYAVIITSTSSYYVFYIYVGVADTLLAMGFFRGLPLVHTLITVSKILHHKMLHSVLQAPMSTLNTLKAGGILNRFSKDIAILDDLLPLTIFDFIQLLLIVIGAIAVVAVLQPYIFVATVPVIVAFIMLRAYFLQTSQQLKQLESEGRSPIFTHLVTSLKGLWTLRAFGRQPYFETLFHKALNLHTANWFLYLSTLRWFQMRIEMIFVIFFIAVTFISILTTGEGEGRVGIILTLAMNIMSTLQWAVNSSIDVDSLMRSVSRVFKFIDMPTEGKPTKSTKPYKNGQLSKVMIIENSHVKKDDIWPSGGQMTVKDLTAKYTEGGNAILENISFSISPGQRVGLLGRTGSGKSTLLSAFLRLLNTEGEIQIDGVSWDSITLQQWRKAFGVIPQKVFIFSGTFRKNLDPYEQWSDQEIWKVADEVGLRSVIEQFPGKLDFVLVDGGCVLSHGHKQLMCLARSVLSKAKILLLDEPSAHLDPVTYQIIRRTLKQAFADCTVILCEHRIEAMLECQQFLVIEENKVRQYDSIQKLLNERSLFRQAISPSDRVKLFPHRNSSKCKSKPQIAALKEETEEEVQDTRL
Briefly: TECC assay on normal primary human bronchial epithelial (HBE) cells. The conditions noted are these: 0.3 μM forskolin. The method, then:
The TECC assay is used to evaluate compounds on normal primary bronchial epithelial cells (HBE cells), which are closer to physiological conditions
Bronchial epithelial cells isolated from transplanted lungs from normal (wt CFTR) were isolated from lungs obtained from donors undergoing a planned transplantation. These primary cells were cultured directly on type IV collagen-coated polycarbonate Transwell supports with a diameter of 6.5 mm and pore size of 0.4 μm (Costar, #3397) for 18 to 25 days in air liquid (ali) interface essentially as previously described for TECC. (Fulcher et al. 2005)
Trans-epithelial clamp circuit (TECC) recordings were performed using the TECC instrument developed and sold by EP Design (Bertem, Belgium). During the recording, the epithelial cells were bathed in a NaCl-Ringer solution (120 mM NaCl, 20 mM HEPES, 1.2 mM CaCl2, 1.2 mM MgCl2, 0.8 mM KH2PO4, 0.8 mM K2HPO4, 5 mM glucose, pH 7.4) on both the basolateral (640 μl) and the apical side (160 μl) and kept at 37° C. Apical amiloride was used to inhibit the endogenous ENaC currents (100 μM) while forskolin (0.3 μM) was applied on both the apical and basolateral sides to stimulate CFTR. All triggers and compounds used during the experiment were first dissolved in DMSO to a 1000× concentrated solution, just prior to treatment a 10× stock was prepared in the NaCl-Ringer solution which was used for addition of the correct concentration of trigger and or compound during the experiment. Cells were treated with test compounds for 24 hours before recording and this treatment was repeated in the TECC buffer prior to the electrophysiological recording. Measurements were done during a 20-min timeframe with recordings every 2 min. The transepithelial potential (PD) and transepithelial resistance (Rt) were measured in an open circuit and transformed to Ieq using Ohm's law. The maximal increase in Ieq (Δ Ieq) was used as a measure for the increased CFTR activity.

Like-named read-outs stand apart in the source and are kept apart here.

T1 sequence (P26361 whole entry): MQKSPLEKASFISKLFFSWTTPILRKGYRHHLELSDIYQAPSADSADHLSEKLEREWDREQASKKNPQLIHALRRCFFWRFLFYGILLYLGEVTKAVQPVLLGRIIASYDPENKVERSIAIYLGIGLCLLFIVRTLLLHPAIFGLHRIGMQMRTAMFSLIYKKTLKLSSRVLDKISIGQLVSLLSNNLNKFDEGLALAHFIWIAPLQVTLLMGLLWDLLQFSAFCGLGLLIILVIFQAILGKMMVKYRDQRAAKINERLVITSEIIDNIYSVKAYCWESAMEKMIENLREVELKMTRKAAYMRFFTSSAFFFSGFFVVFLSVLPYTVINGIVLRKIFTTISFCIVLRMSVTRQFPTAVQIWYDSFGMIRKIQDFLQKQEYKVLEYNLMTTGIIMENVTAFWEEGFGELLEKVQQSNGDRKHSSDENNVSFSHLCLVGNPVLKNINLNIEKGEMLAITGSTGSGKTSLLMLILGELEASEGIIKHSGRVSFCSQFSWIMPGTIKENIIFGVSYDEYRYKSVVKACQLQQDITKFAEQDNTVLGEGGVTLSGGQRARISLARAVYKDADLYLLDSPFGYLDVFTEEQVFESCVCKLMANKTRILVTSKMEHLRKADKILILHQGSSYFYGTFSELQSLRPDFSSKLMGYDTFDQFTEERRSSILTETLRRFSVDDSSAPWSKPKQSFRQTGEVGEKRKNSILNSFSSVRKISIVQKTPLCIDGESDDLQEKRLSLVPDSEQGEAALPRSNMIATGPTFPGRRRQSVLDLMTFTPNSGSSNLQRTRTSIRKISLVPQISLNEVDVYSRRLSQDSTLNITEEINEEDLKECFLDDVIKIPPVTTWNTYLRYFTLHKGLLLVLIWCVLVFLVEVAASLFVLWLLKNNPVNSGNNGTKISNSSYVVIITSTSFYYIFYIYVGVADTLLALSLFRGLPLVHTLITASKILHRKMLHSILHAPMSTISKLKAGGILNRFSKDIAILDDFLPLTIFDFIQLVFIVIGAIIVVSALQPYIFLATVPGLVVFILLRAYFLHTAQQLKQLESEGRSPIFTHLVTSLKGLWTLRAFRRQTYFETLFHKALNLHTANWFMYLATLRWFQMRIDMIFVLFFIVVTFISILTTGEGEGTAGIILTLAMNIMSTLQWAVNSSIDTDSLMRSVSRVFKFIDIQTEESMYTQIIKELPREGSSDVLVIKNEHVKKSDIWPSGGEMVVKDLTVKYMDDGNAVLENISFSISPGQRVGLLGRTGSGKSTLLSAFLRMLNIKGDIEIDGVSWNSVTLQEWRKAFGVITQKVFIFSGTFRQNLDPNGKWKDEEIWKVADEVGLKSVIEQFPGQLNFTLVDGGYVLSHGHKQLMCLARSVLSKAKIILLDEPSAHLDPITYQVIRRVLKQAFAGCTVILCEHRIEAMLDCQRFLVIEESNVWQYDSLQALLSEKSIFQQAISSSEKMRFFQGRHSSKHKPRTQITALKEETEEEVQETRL
T2 sequence (P13569 whole entry): as the sequence (P13569 whole entry) above

As to `COC1CCN(C2CCN(c3cc(C(=O)NS(=O)(=O)N(C)C)nc4c3c(C3CCC3)nn4-c3ccc(F)cc3)CC2)CC1` [Cpd 1], the EC50 in experiment [1] (Compound 1 alone at 30 μM, mouse mIMCD3_wt cells, read-out: EC50 of inhibition of mouse CFTR activity) amounted to 3120 nM; in experiment [2], 728 nM. Moreover, the IC50 was found to be 3120 nM in experiment [1] ([Metformin] 0 μM, mIMCD3_wt cells, read-out: IC50); 3670 nM in experiment [1] ([Metformin] 20 μM, mIMCD3_wt cells, read-out: IC50); 2320 nM in experiment [1] ([Metformin] 40 μM, mIMCD3_wt cells, read-out: IC50); 3790 nM in experiment [1] ([Metformin] 80 μM, mIMCD3_wt cells, read-out: IC50); 2910 nM in experiment [1] ([Metformin] 160 μM, mIMCD3_wt cells, read-out: IC50); 1910 nM in experiment [1] ([Metformin] 310 μM, mIMCD3_wt cells, read-out: IC50). The IC50 in experiment [1] ([Metformin] 630 μM, mIMCD3_wt cells, read-out: IC50) was 1770 nM; in experiment [1] ([Metformin] 1250 μM, mIMCD3_wt cells, read-out: IC50), 1820 nM; in experiment [1] ([Metformin] 2500 μM, mIMCD3_wt cells, read-out: IC50), 830 nM; in experiment [1] (combined with 5 μM of Metformin, mouse mIMCD3 cells, read-out: IC50 of inhibition of mouse CFTR), 920 nM; in experiment [3] (read-out: IC50 value (resulting from pIC50) (converted)), 108 nM. Further, in experiment [3] (vs DMSO control), the “reduction of channel activity” value turned out to be 54%. Moreover, the “current after incubation (Ieq)” value in experiment [3] (24 h treatment) was 6.6 μA/cm^2.
